Literature values, collected in patent US20110236881A1, “MODULATION OF INFLUENZA VIRUS” (priority 2008, published 2011).

Target: full-length M2 (Influenza A virus, UniProt P0DOF5)
Details: the protein binds a single drug molecule per tetramer

Chain of full-length M2 (P0DOF5 whole entry): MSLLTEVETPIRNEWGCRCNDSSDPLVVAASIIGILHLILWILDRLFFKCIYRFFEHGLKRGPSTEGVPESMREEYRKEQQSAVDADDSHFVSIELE

## NC12CC3CC(CC(C3)C1)C2 [amantadine]
  cooperativity factor of inhibition of full-length M2: 1.0
